Twelve molecules from patent US20210268115A1 (priority 2020, published 2021) can be followed below.

Broadly, the Cmax is the highest concentration seen after dosing. Broadly, the Tmax is the time from dosing to the highest level.

Read-outs that look alike come from different tables or passages of the source.

The conditions of data set [1]: male, Sprague-Dawley, rat, in vivo.
The conditions of data set [2]: male, Sprague-Dawley, in vivo.
For data set [3] the following is noted: cynomolgus monkey, in vivo; for Prodrug detectability in plasma after dose administration / Tmax: po; for Tmax: male, 8.8 umol/kg.
Data set [4] in a line: In vitro release of therapeutic agent from prodrugs in plasma supplemented with lipoprotein lipase. The settings on record: free allopregnanolone (parent API) in dog plasma supplemented with LPL, 37° C. Format: in vitro ADME. The protocol:
In order to probe the release of free drug from TG prodrugs in the systemic circulation, prodrugs are incubated with plasma (rat, dog, monkey, or human) supplemented with lipoprotein lipase (LPL, 200 IU/ml). LPL is a key enzyme required for the hydrolysis of lipoprotein associated TG in the systemic circulation and is therefore expected to be a key contributor to lipolysis of the re-esterified drug-TG construct in plasma, largely via liberation of fatty acids in the sn-1 and the sn-3 position of the TG-mimetic, prior to drug release from the 2′ position via esterase hydrolysis. LPL is active in plasma but is tethered to the luminal surface of vascular endothelial cells under physiological conditions. In the current in vitro studies, plasma is therefore supplemented with LPL to better reflect the in vivo situation.
To start hydrolysis, 10 μl of LPL solution (10,000 IU/ml) will be added to a mixture of 10 μl of prodrug solution (1 mg/ml dissolved in organic solvent, e.g., THF, DMSO, or acetonitrile) and 500 μl of blank plasma. The mixture will be incubated at 37° C. […] The supernatant will be analyzed by HPLC-MS/MS for the potential products (MG form, acid form, and free drug) of prodrug hydrolysis.
The in vitro hydrolysis profile of selected prodrug compounds will be determined in rat, dog, monkey and/or human plasma supplemented with LPL.

Take `CCC(=O)OCC(COC(=O)CC)OC(=O)C(C)CCCCCCCCC(C)C(=O)OCCCCC(=O)O[C@@H]1CC[C@@]2(C)[C@@H](CC[C@@H]3[C@@H]2CC[C@]2(C)[C@@H](C(C)=O)CC[C@@H]32)C1` (stereo partly shown) [Compound I-5, ALL-FSI5-C12a′aMe-2-TG]: in data set [1] (2 mg/kg), the Cmax came out at 62.8 nM; the “Mean Plasma AUC, 0-24 h” value is 0.0839 µM·h; the Tmax is reported as 1.8 h.

On to `CC(=O)[C@H]1CC[C@H]2[C@@H]3CC[C@H]4C[C@H](O)CC[C@]4(C)[C@H]3CC[C@]12C` [Allopregnanalone, 5α-pregnan-3α-ol-20-one], for which the “Rat - cumulative lymphatic transport: Mean, total lymphatic transport over 6 or 8 hours (%)” value in data set [2] was 0.1%.

For `CCCCCCCC(=O)OCC(COC(=O)CCCCCCC)OC(=O)CC(C)CC(=O)OCOC(=O)O[C@@H]1CC[C@@]2(C)[C@@H](CC[C@@H]3[C@@H]2CC[C@]2(C)[C@@H](C(C)=O)CC[C@@H]32)C1` (stereo partly shown) [Compound I-47, ALL-CASI-C5bMe-2-TG-octanoate], in data set [3], the “Tolerability of oral administration” value is reported as “well-tolerated”, the “Prodrug detectability in plasma after dose administration” value is recorded as “detectable in plasma samples after dose administration at all time-points” and the Tmax turned out to be 4.0 h.

As to `CCC(=O)OCC(COC(=O)CC)OC(=O)C(C)CCCCCCCCC(C)C(=O)OC(C)OC(=O)O[C@@H]1CC[C@@]2(C)[C@@H](CC[C@@H]3[C@@H]2CC[C@]2(C)[C@@H](C(C)=O)CC[C@@H]32)C1` (stereo partly shown) [Compound I-6, ALL-CMSI-C12a′aMe-2-TG], in data set [1] (2 mg/kg), the highest concentration (Cmax) was determined as 239 nM; the “Mean Plasma AUC, 0-24 h” value amounted to 0.3209 µM·h; the time to peak (Tmax) is given as 1 h.

`CCCCCCCC/C=C\CCCCCCCC(=O)OCC(COC(=O)CCCCCCC/C=C\CCCCCCCC)OC(=O)CCCCC(=O)OCO[C@@H]1CC[C@@]2(C)[C@@H](CC[C@@H]3[C@@H]2CC[C@]2(C)[C@@H](C(C)=O)CC[C@@H]32)C1` [Compound I-40, ALL-ASI-C6-2-TG-oleate]: in data set [1] (2 mg/kg), the peak level (Cmax) was 165 nM; the “Mean Plasma AUC, 0-24 h” value came out at 0.265 µM·h; the Tmax came to 1.7 h.

Turning to `CC(=O)OCC(COC(C)=O)OC(=O)CC(C)CC(=O)OC(C)OC(=O)O[C@@H]1CC[C@@]2(C)[C@@H](CC[C@@H]3[C@@H]2CC[C@]2(C)[C@@H](C(C)=O)CC[C@@H]32)C1` (stereo partly shown) [Compound I-38, ALL-CMSI-C5bMe-2-TG-acetate], in data set [1] (po), the concentration peaked (Cmax) at 335 nM; the “Mean Plasma AUC, 0-24 h” value came out at 0.45 µM·h; the Tmax is listed as 1 h.

On to `CCCCCCCC/C=C\CCCCCCCC(=O)OCC(COC(=O)CCCCCCC/C=C\CCCCCCCC)OC(=O)CCCCC(C)CC(=O)OCOC(=O)O[C@@H]1CC[C@@]2(C)[C@@H](CC[C@@H]3[C@@H]2CC[C@]2(C)[C@@H](C(C)=O)CC[C@@H]32)C1` (stereo partly shown) [Compound I-49, ALL-CASI-C8b′Me-2-TG-oleate], for which, in data set [1] (2 mg/kg), the highest concentration (Cmax) amounted to 370 nM; the “Mean Plasma AUC, 0-24 h” value was determined as 0.513 µM·h; the Tmax amounted to 1.7 h.

Consider `CCCCCCCC(=O)OCC(COC(=O)CCCCCCC)OC(=O)CC(C)CC(=O)OC(C)OC(=O)O[C@@H]1CC[C@@]2(C)[C@@H](CC[C@@H]3[C@@H]2CC[C@]2(C)[C@@H](C(C)=O)CC[C@@H]32)C1` (stereo partly shown) [Compound I-36, ALL-CMSI-C5bMe-2-TG-octanoate], for which, in data set [1] (po), the “Mean Plasma AUC, 0-24 h” value is 0.312 µM·h and the Tmax turned out to be 1.2 h. In data set [3], the “Tolerability of oral administration” value is “well-tolerated”, the “Prodrug detectability in plasma after dose administration” value was “detectable in plasma samples after dose administration at all time-points” and the Tmax was determined as 4.0 h.

On to `CCCCCCCC/C=C\CCCCCCCC(=O)OCC(COC(=O)CCCCCCC/C=C\CCCCCCCC)OC(=O)CCCCCCC(=O)OCO[C@@H]1CC[C@@]2(C)[C@@H](CC[C@@H]3[C@@H]2CC[C@]2(C)[C@@H](C(C)=O)CC[C@@H]32)C1` [Compound I-41, ALL-ASI-C8-2-TG-oleate], for which, in data set [1] (2 mg/kg), the Cmax is 129 nM; the “Mean Plasma AUC, 0-24 h” value is 0.211 µM·h; the time to peak (Tmax) is on record as 1.7 h.

As for `CCCC(=O)OCC(COC(=O)CCC)OC(=O)CC(C)CC(=O)OC(C)OC(=O)O[C@@H]1CC[C@@]2(C)[C@@H](CC[C@@H]3[C@@H]2CC[C@]2(C)[C@@H](C(C)=O)CC[C@@H]32)C1` (stereo partly shown) [Compound I-37, ALL-CMSI-C5bMe-2-TG-butyrate], in data set [1] (po), the highest level (Cmax) was 138 nM; the “Mean Plasma AUC, 0-24 h” value came to 0.191 µM·h; the time to peak (Tmax) was determined as 0.8 h.

As to `CCCCCCCC/C=C\CCCCCCCC(=O)OCC(COC(=O)CCCCCCC/C=C\CCCCCCCC)OC(=O)CC(C)CCCCC(=O)OCO[C@@H]1CC[C@@]2(C)[C@@H](CC[C@@H]3[C@@H]2CC[C@]2(C)[C@@H](C(C)=O)CC[C@@H]32)C1` (stereo partly shown) [Compound I-42, ALL-ASI-C8bMe-2-TG-oleate], in data set [1] (2 mg/kg), the peak level (Cmax) was 334 nM; the “Mean Plasma AUC, 0-24 h” value was found to be 0.47 µM·h; the Tmax was found to be 1.5 h.

In the case of `CCCCCCCCCCCCCCCC(=O)OCC(COC(=O)CCCCCCCCCCCCCCC)OC(=O)CC(C)CC(=O)OC(C)OC(=O)O[C@@H]1CC[C@@]2(C)[C@@H](CC[C@@H]3[C@@H]2CC[C@]2(C)[C@@H](C(C)=O)CC[C@@H]32)C1` (stereo partly shown) [Compound I-8, ALL-CMSI-C5bMe-2-TG], the “Parent API present at end of experiment (%)” value in data set [4] was “B (≥20% and <60% release into plasma)”. Also, in data set [1] (2 mg/kg), the highest level (Cmax) was 241 nM; the “Mean Plasma AUC, 0-24 h” value is 0.3681 µM·h; the Tmax came out at 2.3 h.
